Results taken from the supplement of paper PMC10307832.

Tests used:
Experiment in all cases: relative viability (nuclei count vs DMSO), 5 days (fraction); higher = more cells survive
[1] = test system: ABC-1
How it was run: (§1)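 For relative viability, nuclei counts in treated wells were divided by those in vehicle wells. Lung cancer cell lines had been pin-tool dosed in 1536-well plates the day after seeding and cultured for 5 days, then fixed and stained in one step (final 0.05% Triton X-100, 1% formaldehyde, 1 ug/ml Hoechst) and imaged at 4×. Doses were one drug alone or a fixed anchor-drug dose plus five library-drug doses (not always all listed) in √10 steps, and values are duplicate-plate medians.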

[2] = test system: BEN
How it was run: as §1

[3] = test system: EPLC-272H
How it was run: as §1

[4] = test system: HCC-827
How it was run: as §1

[5] = test system: HOP-62
How it was run: as §1

[6] = test system: LU99A
How it was run: as §1

[7] = test system: NCI-H1355
How it was run: as §1

[8] = test system: NCI-H1666
How it was run: as §1

[9] = test system: NCI-H1975
How it was run: as §1

[10] = test system: NCI-H2170
How it was run: as §1

[11] = test system: NCI-H23
How it was run: as §1

[12] = test system: NCI-H2405
How it was run: as §1

[13] = test system: NCI-H3122
How it was run: as §1

[14] = test system: NCI-H322M
How it was run: as §1

[15] = test system: NCI-H358
How it was run: as §1

[16] = test system: NCI-H520
How it was run: as §1

[17] = test system: NCI-H596
How it was run: as §1

[18] = test system: NCI-H647
How it was run: as §1

[19] = test system: NCI-H727
How it was run: as §1

[20] = test system: NCI-H838
How it was run: as §1

[21] = test system: PC-14
How it was run: as §1

[22] = test system: UMC-11
How it was run: as §1

`O=C(O)CCCCC(CCSCc1ccccc1)SCc1ccccc1` (centres undefined) [CPI-613] + Cc1cc(Nc2cc(N3CCN(C)CC3)nc(Sc3ccc(NC(=O)C4CC4)cc3)n2)n[nH]1 [Tozasertib] (partner 0.1 µM) showed a relative viability ([1]; first compound 5 µM) of 0.215, a relative viability ([1]; first compound 15.81 µM) of 0.189 and a relative viability ([1]; first compound 50 µM) of 0.189. The relative viability ([1]; first compound 158.11 µM) was 0.179, the relative viability ([1]; first compound 500 µM) was 0.207 and the relative viability ([2]; first compound 5 µM) was 0.532. For the same molecule, the relative viability ([2]; first compound 15.81 µM) was 0.47, the relative viability ([2]; first compound 50 µM) was 0.495 and the relative viability ([2]; first compound 158.11 µM) was 0.535. The relative viability ([2]; first compound 500 µM) was 0.408, the relative viability ([3]; first compound 5 µM) was 0.285 and the relative viability ([3]; first compound 15.81 µM) was 0.279. It also gave a relative viability ([3]; first compound 50 µM) of 0.242, a relative viability ([3]; first compound 158.11 µM) of 0.0813 and a relative viability ([3]; first compound 500 µM) of 0.0387. The relative viability ([4]; first compound 5 µM) was 0.451, the relative viability ([4]; first compound 15.81 µM) was 0.388 and the relative viability ([4]; first compound 50 µM) was 0.409. For the same molecule, the relative viability ([4]; first compound 158.11 µM) was 0.375, the relative viability ([4]; first compound 500 µM) was 0.292 and the relative viability ([5]; first compound 5 µM) was 0.383. The relative viability ([5]; first compound 15.81 µM) was 0.305, the relative viability ([5]; first compound 50 µM) was 0.286 and the relative viability ([5]; first compound 158.11 µM) was 0.191. It also gave a relative viability ([5]; first compound 500 µM) of 0.0544, a relative viability ([6]; first compound 5 µM) of 0.299 and a relative viability ([6]; first compound 15.81 µM) of 0.298. The relative viability ([6]; first compound 50 µM) was 0.293, the relative viability ([6]; first compound 158.11 µM) was 0.343 and the relative viability ([6]; first compound 500 µM) was 0.34. The relative viability ([7]; first compound 5 µM) was 0.541, the relative viability ([7]; first compound 15.81 µM) was 0.512 and the relative viability ([7]; first compound 50 µM) was 0.508. The relative viability ([7]; first compound 158.11 µM) was 0.314, the relative viability ([7]; first compound 500 µM) was 0.112 and the relative viability ([8]; first compound 5 µM) was 0.558. For the same molecule, the relative viability ([8]; first compound 15.81 µM) was 0.634, the relative viability ([8]; first compound 50 µM) was 0.614 and the relative viability ([8]; first compound 158.11 µM) was 0.233. The relative viability ([8]; first compound 500 µM) was 0.155, the relative viability ([9]; first compound 5 µM) was 0.7 and the relative viability ([9]; first compound 15.81 µM) was 0.639. The relative viability ([9]; first compound 50 µM) was 0.676, the relative viability ([9]; first compound 158.11 µM) was 0.324 and the relative viability ([9]; first compound 500 µM) was 0.233. For the same molecule, the relative viability ([10]; first compound 5 µM) was 0.732, the relative viability ([10]; first compound 15.81 µM) was 0.55 and the relative viability ([10]; first compound 50 µM) was 0.694. It also gave a relative viability ([10]; first compound 158.11 µM) of 0.347, a relative viability ([10]; first compound 500 µM) of 0.183 and a relative viability ([11]; first compound 5 µM) of 0.348. The relative viability ([11]; first compound 15.81 µM) was 0.284, the relative viability ([11]; first compound 50 µM) was 0.337 and the relative viability ([11]; first compound 158.11 µM) was 0.223. The relative viability ([11]; first compound 500 µM) was 0.0061, the relative viability ([12]; first compound 5 µM) was 0.75 and the relative viability ([12]; first compound 15.81 µM) was 0.616. It also gave a relative viability ([12]; first compound 50 µM) of 0.625, a relative viability ([12]; first compound 158.11 µM) of 0.554 and a relative viability ([12]; first compound 500 µM) of 0.533. For the same molecule, the relative viability ([13]; first compound 5 µM) was 0.357, the relative viability ([13]; first compound 15.81 µM) was 0.363 and the relative viability ([13]; first compound 50 µM) was 0.348. The relative viability ([13]; first compound 158.11 µM) was 0.211, the relative viability ([13]; first compound 500 µM) was 0.0108 and the relative viability ([14]; first compound 5 µM) was 0.499. For the same molecule, the relative viability ([14]; first compound 15.81 µM) was 0.452, the relative viability ([14]; first compound 50 µM) was 0.499 and the relative viability ([14]; first compound 158.11 µM) was 0.25. It also gave a relative viability ([14]; first compound 500 µM) of 0.0634, a relative viability ([15]; first compound 15.81 µM) of 0.113 and a relative viability ([15]; first compound 50 µM) of 0.0981. The relative viability ([15]; first compound 158.11 µM) was 0.0576, the relative viability ([15]; first compound 500 µM) was 0.0347 and the relative viability ([16]; first compound 5 µM) was 0.42. For the same molecule, the relative viability ([16]; first compound 15.81 µM) was 0.378, the relative viability ([16]; first compound 50 µM) was 0.352 and the relative viability ([16]; first compound 158.11 µM) was 0.48. For the same molecule, the relative viability ([16]; first compound 500 µM) was 0.375, the relative viability ([17]; first compound 5 µM) was 1.08 and the relative viability ([17]; first compound 15.81 µM) was 0.923. It also gave a relative viability ([17]; first compound 50 µM) of 0.966, a relative viability ([17]; first compound 158.11 µM) of 0.595 and a relative viability ([17]; first compound 500 µM) of 0.0638. The relative viability ([18]; first compound 5 µM) was 0.384, the relative viability ([18]; first compound 15.81 µM) was 0.244 and the relative viability ([18]; first compound 50 µM) was 0.286. The relative viability ([18]; first compound 158.11 µM) was 0.0859, the relative viability ([18]; first compound 500 µM) was 0.021 and the relative viability ([19]; first compound 5 µM) was 0.557. For the same molecule, the relative viability ([19]; first compound 15.81 µM) was 0.697, the relative viability ([19]; first compound 50 µM) was 0.685 and the relative viability ([19]; first compound 158.11 µM) was 0.369. It also gave a relative viability ([19]; first compound 500 µM) of 0.455, a relative viability ([20]; first compound 5 µM) of 0.271 and a relative viability ([20]; first compound 15.81 µM) of 0.252. It also gave a relative viability ([20]; first compound 50 µM) of 0.249, a relative viability ([20]; first compound 158.11 µM) of 0.194 and a relative viability ([20]; first compound 500 µM) of 0.104. For the same molecule, the relative viability ([21]; first compound 5 µM) was 0.556, the relative viability ([21]; first compound 15.81 µM) was 0.531 and the relative viability ([21]; first compound 50 µM) was 0.553. It also gave a relative viability ([21]; first compound 158.11 µM) of 0.502, a relative viability ([21]; first compound 500 µM) of 0.536 and a relative viability ([22]; first compound 5 µM) of 0.189. For the same molecule, the relative viability ([22]; first compound 15.81 µM) was 0.195, the relative viability ([22]; first compound 50 µM) was 0.183 and the relative viability ([22]; first compound 158.11 µM) was 0.127. The relative viability ([22]; first compound 500 µM) was 0.116.
